The record followed here is PMC3899232, “Peptide Binding Properties of the Three PDZ Domains of Bazooka (Drosophila Par-3)” (PLoS ONE, 2014).

The target of one assay is GST-PDZ3 (Baz PDZ3) (Drosophila melanogaster, UniProt Q0KHR3). The experiment in a line: SPR binding of peptides to immobilized GST-PDZ3 (Biacore 3000). As to conditions: for Kd: GST-PDZ3 immobilized on CM5 at 30 µg/ml in 10 mM sodium acetate pH 5.5, HBS-EP running buffer pH 7.4, 1:1 binding model with drifting baseline. The method, then:
(§1) To test the binding of purified peptides to the PDZ domain GST fusion proteins, we acquired one peptide for each PDZ domain corresponding to single peptides identified by phage display (Fig. 3A). We separately immobilized PDZ domain GST fusion proteins on solid supports and analyzed peptide binding by surface plasmon resonance (SPR).
(§2) Binding experiments were conducted with a Biacore 3000 biosensor (GE Healthcare, USA), as described. Specifically, the GST fusion proteins of each PDZ domain alone or of the PDZ domains in tandem were immobilized on CM5 chips (GE Healthcare) at a concentration of 30 µg/ml in 10 mM sodium acetate (pH 5.5) for PDZ1, PDZ3 and PDZ1-3, and in 10 mM HEPES (pH 7.0) for PDZ2. The peptides for SPR were biotinylated but otherwise identical to those indentified by phage display (Peptide 1, Biotin-SAPGGGLRIVNGLWIF; Peptide 2, Biotin-SAPGGGDREWWV; Peptide 3, Biotin-SAPGGGRVLWFDLGIF; synthesized by Sheldon Biotechnology Centre, McGill University, Canada). All peptides were solubilized in HBS-EP running buffer (10 mM Hepes pH 7.4, 150 mM NaCl, 3 mM EDTA, 0.005% Surfactant P20) and were flowed over the immobilized proteins in this buffer. For Peptide 1 and Peptide 3, KD values were determined with a 1∶1 binding model with drifting baseline. For Peptide 2, KD values were determined with a steady state model.

Assay [1] concerns the target GST-PDZ1-3 (Baz PDZ domains in tandem) (Drosophila melanogaster, UniProt Q0KHR3). The experiment in a line: SPR binding of peptides to immobilized tandem GST-PDZ1-3 (Biacore 3000). As to conditions: for KD values of GST-PDZ1-3 compared with single GST-PDZ domains (in words): SPR, HBS-EP pH 7.4, tandem versus single PDZ domain alone; for Kd: tandem GST-PDZ1-3 immobilized on CM5 at 30 µg/ml in 10 mM sodium acetate pH 5.5, HBS-EP running buffer pH 7.4.
Description: With the binding strengths of individual PDZ domain-peptide interactions quantified, we next investigated whether the natural tandem arrangement of the PDZ domains affects their peptide binding. For these experiments, we purfied GST-PDZ1-3 and confirmed its stability by SDS-PAGE (Fig. 2B). To test the binding properties of the individual PDZ domains within the tandem, we separately probed GST-PDZ1-3 with Peptides 1, 2 and 3. […] To assess binding quantitatively, we determined the KD values of GST-PDZ1-3 binding to each peptide. […] Thus, the peptide binding pockets of each PDZ domain appear to be unaffected by tandem organization of the PDZ domains.
as §2

The target of a further assay is GST-PDZ1 (Baz PDZ1) (Drosophila melanogaster, UniProt Q0KHR3). The experiment in a line: SPR binding of peptides to immobilized GST-PDZ1 (Biacore 3000). As to conditions: for Kd: GST-PDZ1 immobilized on CM5 at 30 µg/ml in 10 mM sodium acetate pH 5.5, HBS-EP running buffer pH 7.4, 1:1 binding model with drifting baseline. How it is done:
as §1, §2

For a further assay, the target named is GST-PDZ2 (Baz PDZ2) (Drosophila melanogaster, UniProt Q0KHR3). The experiment in a line: SPR binding of peptides to immobilized GST-PDZ2 (Biacore 3000). As to conditions: for Kd: GST-PDZ2 immobilized on CM5 at 30 µg/ml in 10 mM HEPES pH 7.0, HBS-EP running buffer pH 7.4, steady state model. How it is done:
as §1, §2

Assay [2] addresses GST-PDZ3 (GST fusion protein of Baz PDZ3) (Drosophila). The experiment in a line: SPR; Biacore 3000; GST fusion protein immobilised on CM5 chip (30 µg/ml in 10 mM sodium acetate pH 5.5); Peptide 1 or Peptide 3 flowed in HBS-EP (10 mM Hepes pH 7.4, 150 mM NaCl, 3 mM EDTA, 0.005% Surfactant P20); 1:1 binding model with drifting baseline.
Assay [3] deals with GST-Baz PDZ1-3 (fusion protein containing all three PDZ domains and their normal linker regions) (Drosophila). The description is as above.
Assay [4] addresses GST-PDZ1 (GST fusion protein of Baz PDZ1) (Drosophila). Described as above.
The target in assay [5] is GST-Baz PDZ1-3 (fusion protein containing all three PDZ domains and their normal linker regions) (Drosophila). The experiment in a line: SPR; Biacore 3000; GST fusion protein immobilised on CM5 chip (30 µg/ml; PDZ2 in 10 mM HEPES pH 7.0, PDZ1-3 in 10 mM sodium acetate pH 5.5); Peptide 2 flowed in HBS-EP (10 mM Hepes pH 7.4, 150 mM NaCl, 3 mM EDTA, 0.005% Surfactant P20); steady state model.

Assay [6] concerns the target GST-PDZ2 (GST fusion protein of Baz PDZ2) (Drosophila). Described as above.
The mark [7] stands for this setting: replicate 1 (separately purified proteins, separately prepared peptides).
Setting [8] is: replicate 2 (separately purified proteins, separately prepared peptides).
Where [9] appears, read: replicate 1 (separately purified proteins, separately prepared peptides), Peptides 1 and 3: 1:1 binding model with drifting baseline.
Setting [10] is: replicate 2 (separately purified proteins, separately prepared peptides), Peptides 1 and 3: 1:1 binding model with drifting baseline.

“And” between values parts separate entries of the source, which are not always exact repeats. Identical values can stand only once. Ends that are not written are not given here. Peptide text beside a SMILES is read from it. * marks the point of attachment. Biotin = O=C1N[C@H]2[C@H](CS[C@H]2CCCCC(=O)*)N1

Chain of GST-PDZ1 (Baz PDZ1) (Q0KHR3 1-1520): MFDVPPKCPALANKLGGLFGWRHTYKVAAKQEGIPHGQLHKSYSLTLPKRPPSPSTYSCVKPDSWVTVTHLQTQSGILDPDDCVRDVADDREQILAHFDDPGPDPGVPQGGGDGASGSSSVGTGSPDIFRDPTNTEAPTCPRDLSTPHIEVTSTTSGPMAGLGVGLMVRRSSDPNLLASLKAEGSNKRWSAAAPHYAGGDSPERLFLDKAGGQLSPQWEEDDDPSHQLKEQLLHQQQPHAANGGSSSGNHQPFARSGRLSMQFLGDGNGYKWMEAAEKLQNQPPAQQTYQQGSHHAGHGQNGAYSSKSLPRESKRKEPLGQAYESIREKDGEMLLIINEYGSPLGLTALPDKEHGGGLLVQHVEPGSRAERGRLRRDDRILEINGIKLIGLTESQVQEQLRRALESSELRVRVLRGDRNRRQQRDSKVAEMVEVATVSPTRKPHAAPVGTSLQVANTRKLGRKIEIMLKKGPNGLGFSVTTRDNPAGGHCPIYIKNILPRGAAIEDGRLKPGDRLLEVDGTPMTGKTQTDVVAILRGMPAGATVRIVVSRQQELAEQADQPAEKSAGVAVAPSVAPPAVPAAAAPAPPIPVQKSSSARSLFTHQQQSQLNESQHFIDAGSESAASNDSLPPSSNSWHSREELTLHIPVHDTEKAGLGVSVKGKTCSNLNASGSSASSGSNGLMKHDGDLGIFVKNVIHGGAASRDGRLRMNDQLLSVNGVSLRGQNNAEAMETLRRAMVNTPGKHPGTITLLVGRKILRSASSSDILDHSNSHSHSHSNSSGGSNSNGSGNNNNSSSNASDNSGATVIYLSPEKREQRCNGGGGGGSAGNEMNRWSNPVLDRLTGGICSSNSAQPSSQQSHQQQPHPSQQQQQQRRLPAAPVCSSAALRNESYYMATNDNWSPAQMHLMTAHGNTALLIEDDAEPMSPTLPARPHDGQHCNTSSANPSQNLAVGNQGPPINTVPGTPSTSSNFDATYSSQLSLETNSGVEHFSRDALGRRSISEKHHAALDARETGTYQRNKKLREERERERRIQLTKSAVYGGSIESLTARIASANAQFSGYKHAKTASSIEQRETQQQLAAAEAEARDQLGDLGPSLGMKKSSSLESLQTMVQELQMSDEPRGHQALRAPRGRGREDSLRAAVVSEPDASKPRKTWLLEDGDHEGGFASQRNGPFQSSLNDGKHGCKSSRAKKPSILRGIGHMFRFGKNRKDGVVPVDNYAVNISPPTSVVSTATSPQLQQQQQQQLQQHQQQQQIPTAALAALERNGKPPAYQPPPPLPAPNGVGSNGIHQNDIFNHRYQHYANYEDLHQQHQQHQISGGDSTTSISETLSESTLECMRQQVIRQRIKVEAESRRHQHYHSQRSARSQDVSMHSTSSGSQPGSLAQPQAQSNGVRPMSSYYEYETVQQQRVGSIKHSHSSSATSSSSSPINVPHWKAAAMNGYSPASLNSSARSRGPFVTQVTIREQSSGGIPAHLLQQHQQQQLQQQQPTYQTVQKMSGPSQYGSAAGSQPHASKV
Chain of GST-PDZ3 (Baz PDZ3) (Q0KHR3 1-1520): as above
Chain of GST-PDZ1-3 (Baz PDZ domains in tandem) (Q0KHR3 1-1520): as above
Chain of GST-PDZ2 (Baz PDZ2) (Q0KHR3 1-1520): as above

Turning to `CC[C@H](C)[C@H](NC(=O)CNC(=O)[C@H](CC(C)C)NC(=O)[C@H](CC(=O)O)NC(=O)[C@H](Cc1ccccc1)NC(=O)[C@H](Cc1c[nH]c2ccccc12)NC(=O)[C@H](CC(C)C)NC(=O)[C@@H](NC(=O)[C@H](CCCNC(=N)N)NC(=O)CNC(=O)CNC(=O)CNC(=O)[C@@H]1CCCN1C(=O)[C@H](C)NC(=O)[C@H](CO)NC(=O)CCCC[C@@H]1SC[C@@H]2NC(=O)N[C@@H]21)C(C)C)C(=O)N[C@@H](Cc1ccccc1)C(=O)O` [Peptide 3, Biotin-SAPGGGRVLWFDLGIF] (Biotin-SAPGGGRVLWFDLGIF-OH), at GST-PDZ3 (Baz PDZ3) (SPR, HBS-EP pH 7.4, GST-PDZ3, summary of Table 1), the “KD values (in words)” value was “in the nM range”. In addition, the equilibrium dissociation constant (Kd) at GST-PDZ3 (Baz PDZ3) (setting [7]) was determined as 45.9 nM; on GST-PDZ3 (Baz PDZ3) (setting [8]), 25.2 nM; in assay [1] (setting [9]) it was 49.4 nM; in assay [1] (setting [10]) it was 32.6 nM. In addition, in assay [1], the “KD values of GST-PDZ1-3 compared with single GST-PDZ domains (in words)” value is given as “very close to those of each GST-PDZ domain alone”.

As for `CC[C@H](C)[C@H](NC(=O)[C@H](Cc1c[nH]c2ccccc12)NC(=O)[C@H](CC(C)C)NC(=O)CNC(=O)[C@H](CC(N)=O)NC(=O)[C@@H](NC(=O)[C@@H](NC(=O)[C@H](CCCNC(=N)N)NC(=O)[C@H](CC(C)C)NC(=O)CNC(=O)CNC(=O)CNC(=O)[C@@H]1CCCN1C(=O)[C@H](C)NC(=O)[C@H](CO)NC(=O)CCCC[C@@H]1SC[C@@H]2NC(=O)N[C@@H]21)[C@@H](C)CC)C(C)C)C(=O)N[C@@H](Cc1ccccc1)C(=O)O` [Peptide 1, Biotin-SAPGGGLRIVNGLWIF] (Biotin-SAPGGGLRIVNGLWIF-OH), the “KD values of GST-PDZ1-3 compared with single GST-PDZ domains (in words)” value in assay [1] is “very close to those of each GST-PDZ domain alone”. The Kd in assay [1] (setting [9]) was determined as 263 nM; in assay [1] (setting [10]) it was 245 nM; on GST-PDZ1 (Baz PDZ1) (setting [7]) it was 164 nM; on GST-PDZ1 (Baz PDZ1) (setting [8]), 186 nM. Also, the “KD values (in words)” value on GST-PDZ1 (Baz PDZ1) (SPR, HBS-EP pH 7.4, GST-PDZ1, summary of Table 1) was “in the nM range”.

Regarding `CC(C)[C@H](NC(=O)[C@H](Cc1c[nH]c2ccccc12)NC(=O)[C@H](Cc1c[nH]c2ccccc12)NC(=O)[C@H](CCC(=O)O)NC(=O)[C@H](CCCNC(=N)N)NC(=O)[C@H](CC(=O)O)NC(=O)CNC(=O)CNC(=O)CNC(=O)[C@@H]1CCCN1C(=O)[C@H](C)NC(=O)[C@H](CO)NC(=O)CCCC[C@@H]1SC[C@@H]2NC(=O)N[C@@H]21)C(=O)O` [Peptide 2, Biotin-SAPGGGDREWWV] (Biotin-SAPGGGDREWWV-OH), the “KD values of GST-PDZ1-3 compared with single GST-PDZ domains (in words)” value in assay [1] is on record as “very close to those of each GST-PDZ domain alone”. The Kd in assay [1] (replicate 1 (separately purified proteins, separately prepared peptides), Peptide 2: steady state model) was found to be 9130 nM; in assay [1] (replicate 2 (separately purified proteins, separately prepared peptides), Peptide 2: steady state model), 9980 nM; at GST-PDZ2 (Baz PDZ2) (setting [7]), 17700 nM; at GST-PDZ2 (Baz PDZ2) (setting [8]), 13000 nM. Besides, at GST-PDZ2 (Baz PDZ2) (SPR, HBS-EP pH 7.4, GST-PDZ2, summary of Table 1), the “KD values (in words)” value is “in the µM range”.

Biotin-SAPGGGRVLWFDLGIF [Peptide 3 (Biotin-…)]: the dissociation constant (Kd) in assay [2] is 25.2 nM and 45.9 nM; in assay [3] it was 49.4 nM and 32.6 nM.

For Biotin-SAPGGGLRIVNGLWIF [Peptide 1 (Biotin-…)], the equilibrium dissociation constant (Kd) in [3] was 263 nM and 245 nM; in assay [4], 164 nM and 186 nM.

Take Biotin-SAPGGGDREWWV [Peptide 2 (Biotin-…)]: the Kd in [5] is 9130 nM and 9980 nM; in [6], 17700 nM and 13000 nM.
